Source: US20140378515A1, “IMMUNOSUPPRESSIVE COMPOUNDS” (priority 2013, published 2014)
Values after ≈ are worked out from the molar mass of the structure shown. Values joined by “and” are separate entries in the source; they are usually repeats but may differ in a detail not shown here. Equal values may be shown once.

Experiments:
[1] = system: ROS produced by human blood phagocytes; assay: Oxidative burst, luminol-enhanced chemiluminescence in whole blood; format: cell-based; details: serum opsonized zymosan
Method: Formation of the reactive oxygen species (ROS) in whole blood, during the oxidative burst was measured by the luminol-enhanced chemiluminescence assay. In brief, three concentrations of each compound (1.0, 10 and 100 μg/mL) were prepared in 25 μL of Hank's Balanced salt solution containing calcium chloride and magnesium sulfate (HBSS^++) in a half area 96-well white flat-bottomed plate (Sigma Aldrich, Steinheim, Germany) in a final volume of 100 μL. Then 25 μL of whole blood diluted 1:50 in suspension of HBSS^++ was added.
Positive and negative controls and blank wells were included. Cells and compounds were incubated for 30 minutes at 37° C., then 25 μL luminol [3-aminophthalhydrazide] (Research Organics Cleveland, Ohio, USA), were added into each well followed by 25 μL of serum opsonized zymosan (Saccharomyces cerevisiae origin) purchased from Fluka, Buchs (Switzerland) was added except for negative and blank wells. The ROS chemiluminescence kinetic was monitored with a luminometer from Labsystems (Helsinki, Finland), for 50 minutes in the repeated scan mode. Peak and total integral chemiluminescence readings were expressed in the relative light unit.

T-cell proliferation = T-cell proliferation assay (PHA-stimulated PBMNCs, 3H-thymidine incorporation); format: cell-based, human; parameters: unit not given here; details: PHA 5 μg/mL stimulated PBMNCs
Method: The diluted blood was then layered onto lymphocyte separation medium (MP Biomedicals, Inc., Ohio, USA) and centrifuged at 400 g for 20 min at 25° C. […] Plates were then incubated at 37° C. in a humidified atmosphere of 5% CO2 in air for 72 hours. To each well, 0.5 μCi [methyl ^3H]-thymidine (Amersham Place Little Chalfont, Buckinghamshire, UK) was added for an additional 18 hours. Cells were harvested using a cell harvester (Inotech, Dottikon, Switzerland), and incorporation and level of radioactivity was measured by a liquid scintillation counter (Beckman coulter, LS 6500, Fullerton, Calif., USA).

[2] = system: NO produced by mouse macrophages J774.2 cell line; assay: Nitrite accumulation in LPS-stimulated J774.2 macrophages (Griess method); format: cell-based; details: LPS-stimulated J774.2, 24 hours
Method: The mouse macrophage cell line J774.2 obtained from ECACC, Salisbury, Wiltshire (UK) was cultured in T75 flasks in complete DMEM containing 10% fetal bovine serum and supplemented with 1% streptomycin/penicillin. Flasks were kept at 37° C. in the atmosphere of humidified air containing 5% CO2. Cell were then seeded in 24 well (10^6 cells/mL) and nitric oxide synthase (NOS-2) in the macrophages was induced by addition of 20 μg/mL E. coli lipopolysaccharide (DIFCO Laboratories, Michigan, USA). The test compounds were added at a concentration of 25 μg/mL soon after LPS stimulation and incubated at 37° C. in 5% CO2. Cell culture supernatant was collected after 24 hours. Nitrite accumulation in J774.2 cell culture supernatant was measured using the Griess method, where 50 μL of 1% sulphanilamide in 2.5% phosphoric acid, followed by 50 μL of 0.1% naphtyl-ethylene diamine dihydrochloride in 2.5% phosphoric acid were added to 50 μL culture medium. After 10 minutes of incubation at room temperature the absorbance at 550 nm was read. Micromolar concentrations of nitrite were calculated from standard curve constructed with sodium nitrite a reference compound. The results were expressed as means±SD of duplicate readings.

IL-4 production = IL-4 production by PHA stimulated PBMNCs (ELISA); format: cell-based, human; details: 18 h
Method: The PBMNCs were cultured in a 96-well flat-bottomed plate (2.0×10^6 cell/mL) in the presence or absence of three concentrations of test compounds (1.0, 5.0, and 25 μg/mL), and phytohemagglutinin (PHA) in a final concentration of 7.5 μg/mL. After an incubation period of 18 h at 37° C. in 5% CO2, supernatant was collected for IL-4 determination. Interleukin-4 levels were measured by using enzyme-linked immunosorbent assay (ELISA) kit (Diaclone, France). The assay was performed according to the manufacturer's instructions. Briefly, in a 96-well ELISA plate which was coated with monoclonal mouse anti-human IL-4, 100 μl recombinant human IL-4 standards and culture supernatants samples were added. The plates were incubated for 2 hours at room temperature and washed three times with wash buffer, followed by the addition of biotinylated goat anti-human IL-4 and further incubated for 1 hour at room temperature. The plates were again washed and streptavidin conjugated horse raddish peroxidase was added and incubated for an additional 20 minutes at room temperature. After three final washes, the enzyme substrate solution was added and incubated for 12 to 15 minutes to allow color development at room temperature in the dark. Then stop solution was added and the plates were read at 450 nm in a plate reader (DIAReader GMBH, Wr. Neudorf, Austria). The results were analyzed using Microsoft Excel.

IL-2 production = IL-2 production by PHA/PMA stimulated PBMCs (ELISA); format: cell-based, human; details: for IC50: experimental IL-2 IC50 listed in Table 3
Method: The PBMCs were cultured in a 96-well flat-bottomed plate (1.0×10^5 cell/well) in the presence or absence of three concentrations of test compounds (1.0, 5.0 and 20 μg/mL), and phytohemagglutinin (PHA) phorbol myristate acetate (PMA) in a final concentration of 5 ng/mL and 20 ng/mL, respectively. After an incubation period of 18 h at 37° C. in a humidified atmosphere of 5% CO2 in air, the supernatant was collected for IL-2 determination. Interleukin-2 levels were measured by using enzyme-linked immunosorbent assay (ELISA) development kit (R&D systems, Minneapolis, Minn., USA). The assay was performed according to the manufacturer's instructions. Briefly, a 96-well flat-bottomed ELISA plate was coated with 4.0 μg/mL mouse anti-human IL-2, in PBS, pH 7.4. Then, re-combinant human IL-2 standards and culture supernatant samples were added and incubated for 2 h followed by washing steps and then the addition of biotinylated goat anti-human IL-2. After an incubation period of 2 h at room temperature, the plates were again washed and streptavidin conjugated horse raddish peroxidase was added and incubated for additional 20 min at room temperature. After the final washes, an enzyme substrate solution of H2O2 and tetra methyl benzidine (1:1 v/v) was added and the color was allowed to develop at room temperature in the dark. The plates were then read at 450 nm in a plate reader (DIAReader GMBH, Wr. Neudorf, Austria). The results were analyzed using Microsoft Excel.

[3] = system: 3T3 NIH mouse embryo fibroblast cell line; assay: MTT cytotoxicity assay; details: for Cytotoxicity IC50: 3T3 NIH cells, 48 h; for interference with the growth of 3T3 cells: up to 20 μg/mL
Method: The 3T3-NIH cells were suspended in Dulbecco's Modified Eagle's Medium (DMEM) formulated with 10% FBS. Using flat bottomed plates, cells were plated at a concentration of 6×10^4 cells/mL and incubated for 24 h at 37° C. and 5% CO2 environment. […] Following exposure to each compound, cell viability was assessed by using 0.5 mg/mL of MTT {3-(4,5-dimethylthiazol-2-yl)-2,5-diphenyltetrazolium bromide for 4 h followed by the removal of supernatant and addition of DMSO to solubilize the formazan complex. The plates were read at 540 nm after one minute shaking and readings were processed using MS Excel software. The results were expressed as means±SD of triplicate readings.

[4] = system: NO produced by mouse macrophages J774.2 cell line; assay: Nitrite accumulation in LPS-stimulated J774.2 macrophages (Griess method); format: cell-based

Row | SMILES | IC50 (μg/mL) for phagocytes ROS [1] | % of NO inhibited by 25 μg/mL of compound [2] | Cytotoxicity IC50 [3] | interference with the growth of 3T3 cells [3] | also measured
1 | COc1ccc(-c2nc3ccccc3s2)cc1OC [Compound 12] | >100 µg/mL | −1.5 ± 0.6% |  |  | IC50 T-cell proliferation (T-cell proliferation): 1.0±0.1; IC50 IL-4 production (IL-4 production): < 1.0 µg/mL
2 | CCOc1ccc(-c2nc3ccccc3s2)cc1 [Compound 22] | >100 µg/mL | 23.5 ± 3.7% |  |  | 
3 | Oc1ccc(-c2nc3ccccc3s2)cc1 [Compound 4] | >100 µg/mL | 56.1±0.6% | >25 µg/mL | did not interfere with the growth of 3T3 cells | IC50 T-cell proliferation (T-cell proliferation): 2.3±0.1; IC50 (IL-2 production): 2.9 µg/mL (≈ 12.8 µM); IC50 NO production [4]: 7.9 ± 0.9 µg/mL (≈ 34.8 µM)
4 | Cc1ccc(-c2nc3ccccc3s2)cc1 [Compound 15] | >100 µg/mL | 10.8 ± 2.4% |  |  | 
5 | Oc1ccc(Cl)cc1-c1nc2ccccc2s1 [Compound 6] | 34.3 ± 4.4 µg/mL | 35.5 ± 7.4% |  |  | 
6 | CC(C)Cc1ccc(C(C)C(=O)O)cc1 (centres unmarked) [Ibuprofen, reference compound] |  |  |  |  | IC50 ([1]; read-out: IC50 (μg/mL) for phagocytes ROS): 11.8 ± 1.2 µg/mL
7 | Clc1ccc(-c2nc3ccccc3s2)cc1 [Compound 25] | >100 µg/mL | 20.6 ± 5.3% |  |  | 
8 | Oc1cccc(-c2nc3ccccc3s2)c1O [Compound 10] | 1.1 ± 0.1 µg/mL | 14.3 ± 1.0% |  | did not interfere with the growth of 3T3 cells | IC50 T-cell proliferation (T-cell proliferation): 0.99±0.1
9 | Cc1ccccc1-c1nc2ccccc2s1 [Compound 7] | >100 µg/mL | 5.4 ± 2.8% |  |  | 
10 | Oc1ccc(-c2nc3ccccc3s2)c(O)c1 [Compound 13] | 11.1 ± 0.9 µg/mL | 32.7 ± 8.3% | 11.5 ± 0.0 µg/mL | did not interfere with the growth of 3T3 cells | 
11 | Clc1cccc(-c2nc3ccccc3s2)c1 [Compound 17] | 81.0 ± 4.1 µg/mL | 14.1 ± 3.0% |  |  | 
12 | CN(C)c1ccc(-c2nc3ccccc3s2)cc1 [Compound 14] | 11.8 ± 1.2 µg/mL | 16.8 ± 0.8% | >25 µg/mL | did not interfere with the growth of 3T3 cells | 
13 | Oc1ccc(-c2nc3ccccc3s2)cc1O [Compound 9] | 3.7 ± 0.2 µg/mL | 58.5±3.3% | 11.1 µg/mL and 11.4 ± 1.8 µg/mL | did not interfere with the growth of 3T3 cells | IC50 T-cell proliferation (T-cell proliferation): 1.2±0.0; IC50 NO production [4]: 12.6 ± 2.1 µg/mL (≈ 51.8 µM)
14 | Brc1ccc(-c2nc3ccccc3s2)cc1 [Compound 21] | >100 µg/mL | 11.5 ± 2.7% |  |  | 
15 | c1ccc2cc(-c3nc4ccccc4s3)ccc2c1 [Compound 3] | >100 µg/mL | 20.5 ± 5.9% |  |  | 
16 | Oc1cc(O)c(-c2nc3ccccc3s2)cc1O [Compound 18] | >100 µg/mL | 78.1±1.6% | 10.4 µg/mL |  | IC50 T-cell proliferation (T-cell proliferation): 1.95±0.4; IC50 (IL-2 production): 1.1 µg/mL (≈ 4.24 µM); IC50 IL-4 production (IL-4 production): 8.0 ± 0.0 µg/mL (≈ 30.9 µM)
17 | CCOc1cccc(-c2nc3ccccc3s2)c1O [Compound 1] | >100 µg/mL | 26.5 ± 0.0% |  |  | 
18 | c1ccc2sc(-c3ccncc3)nc2c1 [Compound 20] | 15.5 ± 1.0 µg/mL | 41.6 ± 4.7% | >25 µg/mL |  | 
19 | Oc1cccc(-c2nc3ccccc3s2)c1 [Compound 5] | >100 µg/mL | 44.5 ± 0.3% | >20 µg/mL | did not interfere with the growth of 3T3 cells | IC50 T-cell proliferation (T-cell proliferation): 2.7±0.2; IC50 IL-2 production (IL-2 production; PHA/PMA stimulated PBMCs, 18 h incubation): 6.0 µg/mL (≈ 26.4 µM); IC50 IL-4 production (IL-4 production): 8.9 ± 0.6 µg/mL (≈ 39.2 µM)
20 | Clc1ccc(-c2nc3ccccc3s2)cc1Cl [Compound 26] | >100 µg/mL | 35.7 ± 1.5% |  |  | 
21 | c1csc(-c2nc3ccccc3s2)c1 [Compound 24] | 14.4 ± 2.5 µg/mL | 30.3 ± 0.3% | >25 µg/mL | did not interfere with the growth of 3T3 cells | 
22 | Oc1ccccc1-c1nc2ccccc2s1 [Compound 16] | >100 µg/mL | 20.2 ± 1.5% |  |  | 
23 | Clc1ccc(-c2nc3ccccc3s2)c(Cl)c1 [Compound 11] | >100 µg/mL | −7.4 ± 3.0% |  |  | 
24 | Fc1ccccc1-c1nc2ccccc2s1 [Compound 23] | >100 µg/mL | 28.4 ± 2.5% |  |  | 
25 | c1cncc(-c2nc3ccccc3s2)c1 [Compound 19] | >100 µg/mL | 11.7 ± 1.7% |  |  | 
26 | Oc1ccc(O)c(-c2nc3ccccc3s2)c1 [Compound 8] | <1 µg/mL | 91.1±0.7% | >20 µg/mL | did not interfere with the growth of 3T3 cells | IC50 T-cell proliferation (T-cell proliferation): 1.1±0.1; IC50 (IL-2 production): <1 µg/mL; IC50 NO production [4]: < 5 µg/mL; IC50 IL-4 production (IL-4 production): 9.8 ± 0.6 µg/mL (≈ 40.3 µM)
